Experimental data reported in patent US8765678B2, “Inhibition of the renin-angiotensin system for the treatment of renal, vascular and cartilage pathology” (Mor Research Applications Ltd., priority 2005, dated 2014).
Entries after “also recorded” stand apart in the source; their conditions may differ.

Assays:
[1] = tested on: rats with PAN nephrosis; test: Electron microscopy morphology of kidney sections; format: in vivo; details: PAN injected rat kidney, without or with enalapril treatment
Procedure: (§1) Animals and treatment regimen—Twenty-six male Wistar rats (Belinson, Israel, 220-260 gr each) were housed in individual metabolic cages, and allowed free access to a standard diet and water. Following an acclimatization period of 3 days, the rats were randomized into three groups: controls, puromycin aminonucleoside-treated (PAN-treated) and PAN+ enalapril treated. Six controls were injected with 0.9% NaCl, and 20 rats were injected with PAN (75 mg/kg, Sigma, St. Louis, Mo.) through the tail vein. Ten of the latter were treated with enalapril (Merck Research Laboratories, 50 mg/L) in their drinking water 3 days prior to PAN injection. On day 9, 24-hour urine collections were performed and the protein content was measured using the Beckman Array-Protein system. On day 10, rats were weighed and blood was collected for measurement of serum albumin, creatinine and cholesterol (Autoanalyzer, Hitachi, Japan). All animal experimentation was conducted according to the guidelines established by the Rabin Medical Center ethical committee for the Care and Use of Laboratory Animals
Tissue preparation: The kidneys were removed rapidly and placed on ice and the cortices were separated from the medulla. Slices of each kidney were fixed in 0.5% glutaraldehyde in phosphate buffered saline (PBS), pH 7.4 for morphological and histochemical studies. […]

[2] = tested on: Rat mesangial cells (RMC); test: Calorimetric assay of cell-associated GAGs; format: cell-based; details: for cell-associated GAGs: 36 hours
Procedure: (§2) Rat mesangial cells (RMC): RMC derived from Sprague-Dawley rats (#ATCC-mesangial-CRL-2573) were cultured in DMEM supplemented with 15% fetal calf serum (FCS) and antibiotics, according to ATCC instructions. Mesangial cells are derived from the glomerular interstitium of the kidney and thus serve as a valuable tool for the analysis of the GBM.
Calorimetric assay: Cell-associated GAGs were isolated from RMC by cetylpyridinium chloride (CPC, Sigma) precipitation, as described by (Nevo et al., 1972). Briefly, cells were rendered quiescent in 2% FCS for 24 hours (i.e., starvation conditions), then incubated in DMEM for 36 hours with PAN 40 μg/ml (Sigma), in the presence of increasing doses of enalaprilat [(E), the active form of enalapril], according to the following protocol: control, PAN, PAN+E 200 μg/ml, PAN+E 400 μg/ml, PAN+E 800 μg/ml. Following thorough rinsing in PBS, RMC were harvested using 0.05% trypsin/EDTA. Following addition of a buffer containing 0.1 M sodium acetate, 0.005 M EDTA (Sigma), 0.005 M cysteine (Sigma), and 0.1% papain (Sigma), pH 5.4, the mixtures were incubated for 48 hours at 65° C. and dialyzed for 24 hours against distilled water. NaCl was added to the dialysate to a final concentration of 30 mM, and mixed well. GAGs were precipitated by the addition of CPC to a final concentration of 0.5% and the solution was incubated overnight at 37° C. The precipitate was collected by centrifugation, dissolved in 2 M CaCl2, reprecipitated with ethanol:ether (2:1), collected by centrifugation and dried. GAGs were determined calorimetrically (uronic acid content×3.3=GAG content) using heparan sulfate as standard and expressed as μg GAGs/10^6 cells.

[3] = tested on: rats with PAN nephrosis; test: Blood and urine tests in rats with PAN nephrosis; format: in vivo, rat; details: Wistar rats; PAN 75 mg/kg tail vein; enalapril 50 mg/L in drinking water from 3 days prior to PAN; blood day 10
Procedure: as §1

[4] = tested on: GBM of nephrotic PAN rats; test: CCG binding to the GBM, electron microscopy histochemistry and morphometry; format: in vivo, rat; details: for CCG binding to the GBM (electron micrograph): PAN injected rat kidney, without or with enalapril treatment; for CCG binding, particles/μm^2 GBM (morphometric analysis): PAN rats, non-treated or enalapril-treated, control 67.3+5.6; for anionic GAG sites / preservation of GAGs in the GBM: nephrotic PAN rats
Procedure: as §1
Tissue preparation: The kidneys were removed rapidly and placed on ice and the cortices were separated from the medulla. Slices of each kidney were fixed in 0.5% glutaraldehyde in phosphate buffered saline (PBS), pH 7.4 for morphological and histochemical studies. For electron microscopy (EM), 1 mm^3 tissue blocks of GA-fixed kidneys were washed, dehydrated in ethanol, and embedded in LR-white resin (Polysciences, Wash. Pa.). For EM morphology, similar tissue blocks were post-fixed with 1% Osmium tetroxide (OsO4) in Veronal-acetate buffer, pH 7.4, for 1 hour at 4° C., dehydrated in ethanol and propylene oxide, and embedded in araldite (Polysciences).
Electron microscopy morphology and histochemistry: For EM morphology, ultrathin araldite sections were mounted on 400 mesh grids, stained with uranyl acetate and lead citrate, and coated with carbon. F or EM histochemistry, ultrathin LR-white sections were mounted on 200 mesh nickel grids, coated with formvar films and impregnated with carbon. Polycationic colloidal gold (CCG) was prepared by stabilization of colloidal gold, 12 nm with poly-L-lysine, as described by Weinstein et al., [J Am Soc Nephrol 8: 586-595, 1997]. The sections were stained with CCG, rinsed, and stained with saturated uranyl acetate in 50% ethanol. Examination of all sections was carried out using a JEOL-100B EM at 80 KV.
Morphometry: Analysis of the CCG labeling densities was performed in a blind manner on LR-white-embedded kidney tissue stained with CCG. Analysis was carried out by calculating the density of gold particles/1 μm^2 area of randomly cut membranes. Five rats from each group were studied. In each rat, 100 measurements from 10 glomeruli were performed. All measurements were carried out on digitized electron micrographs at a magnification of 5000, using the NIH-Image 1.49 program for the Macintosh.

[5] = tested on: Human umbilical vein endothelial cells (HUVEC); test: Radioactive assay (^35S labeling) of cell-associated GAGs in endothelial cells; format: cell-based
Procedure: Endothelial cells: Human umbilical vein endothelial cells (HUVEC) were isolated by collagenase treatment. Cultures were established in M-199 medium containing 10% FCS, 25 μl/ml endothelial mitogen (Biomedical Technologies, Mass., USA) and antibiotics. HUVEC were passaged by treatment with 0.25% trypsin/0.02% EDTA, and passages 2-3 were used for experiments.
(§3) Radioactive assay (^35S labeling): Cells were grown to confluence, and were rendered quiescent in 2% FCS for 24 hours, following which they were transferred to serum-free medium plus one of the following additives: control, PAN 40 μg/ml, PAN+E 200 μg/ml, PAN+E 400 μg/ml, PAN+E 800 μg/ml, PAN+C10^−7M candesartan in the presence of 1 μCi/ml ^35S. Following 24 hours, medium was collected, cells were harvested by trypsinization, and aliquots obtained for cell and protein measurements. Cells were digested with papain as described, followed by extensive dialysis against water containing a non-radioactive sodium sulfate, until water contained less than 100 cpm/ml. Dialysate was transferred to Corex tubes and the same procedure was carried out as described for non-radioactive GAGs. Radioactivity was measured in a beta-counter.

[6] = tested on: Rat mesangial cells (RMC); test: Radioactive assay (^35S labeling) of cell-associated GAGs in RMC; format: cell-based; details: for cell-associated GAGs (^35S), % of control: RMC
Procedure: as §2, §3

[7] = tested on: Chondrocytes; test: Radioactive assay (^35S labeling) of cell-associated GAGs in chondrocytes; format: cell-based
Procedure: Chondrocytes: Tissue bits from articular cartilage were incubated in-vitro and explant cell cultures were established as described [Nevo et al., 1972, Dev Biol 28: 219-228]. The cell cultures were assessed by immunohistochemistry.
as §3

[8] = tested on: Osteoarthritic-induced rat; test: Osteoarthritis model of partial meniscectomy, intra-articular ACE-I gel; format: in vivo; details: rats, composite gel containing 5% captopril in the joint, 6 weeks
Excerpt: Osteoarthritis (OA) was induced in 32 rats using the model of partial meniscectomy of Rolli Moskowitz [Moskowitz, R W and Goldberg V M, J. Rheumatol. 1987 May; 14 Spec No:116-8; Moskowitz, R W et al., Ann Rheum Dis. 1981 December; 40(6):584-92]. The tissues of the control rats undergoing partial meniscectomy (8 rats) were immediately closed by suturing, while to the ACE-I treated group (24 rats), immediately following post partial meniscectomy, a composite gel containing ACE-I (5% captopril) was added prior to suturing the joint layers. After 6 weeks the animals were sacrificed. Prior to termination of the experiment a physical checkup ensured the degree of limping and movement limitation of the operated lower limb using an apparatus conducting a digital measurement of the degree of disability, translated to the pressure in grams activated by the operated limb, versus the healthy limb. Histological sections of the joint, femur and tibia, were prepared and stained with hematoxylin-eosin (H&E) as well as with Alcian blue at pH 2.5 and 1.0, and Masson's trichrome stain (Dako, Calif., U.S.A.). Together, these staining techniques assess proteoglycan content and extracellular matrix deposition.

[9] = tested on: inflammatory arthritis in mice; details: Dalbeth et al., Rheumatology 44:24-31, 2004; cited from earlier work
[10] = chondrocytes pretreated with puromycin
[11] = chondrocytes, pretreatment with puromycin + enalaprilat 200 μg/ml

CN(C)c1ncnc2c1ncn2[C@@H]1O[C@H](CO)[C@@H](N)[C@H]1O [PAN, puromycin aminonucleoside]
podocyte architecture (electron microscopy) [1]: loss of podocyte architecture in the glomeruli with flattening and effacement of foot processes | cell-associated GAGs ([2]; PAN 40 μg/ml, control 5.03+0.6): 2.35±0.54 μg GAGs/106 cells | serum creatinine [3]: 0.60 ± 0.01 mg/dL | CCG binding to the GBM (electron micrograph) [4]: marked decrease in CCG binding to the GBM | CCG binding, particles/μm^2 GBM (morphometric analysis) [4]: 39.1±1.0 particles/μm^2 GBM | anionic GAG sites / preservation of GAGs in the GBM [4]: decreased anionic GAG sites in the GBM | cell associated GAGs (^35S), % of control ([5]; PAN 40 μg/ml): 81% | cell-associated GAGs (^35S), % of control ([6]; PAN 40 μg/ml, 24 hours): 69% | ^35S-GAG cpm ± SD [7, 10]: 4333 ± 108 cpm | ^35S-GAG, % of control culture [7, 10]: 68%

CCOc1nc2cccc(C(=O)O)c2n1Cc1ccc(-c2ccccc2-c2nnn[nH]2)cc1 [candesartan]
cell associated GAGs (^35S), % of control ([5]; PAN + candesartan 10^−7 M): 107% | cell-associated GAGs (^35S), % of control ([6]; PAN + candesartan 10^−7 M (first column of that head, c3)): 76 ± 6.2% | cell-associated GAGs (^35S), % of control ([6]; PAN + candesartan 10^−7 M (second column of that head, c4)): 102%

C[C@H](CS)C(=O)N1CCC[C@H]1C(=O)O [captopril]
OA manifestations [8]: only a mild initiation of OA, evident by minimal fibrillations and cell cloning; also recorded: slows down, and minimizes the OA manifestations | articular cartilage histology (cellularity, proteoglycans) [8]: highly cellular, with a dense presentation of proteoglycans

CCOC(=O)[C@H](CCc1ccccc1)N[C@@H](C)C(=O)N1CCC[C@H]1C(=O)O [enalapril]
serum cholesterol [3]: 91.7 ± 10.7 mg/dL | serum creatinine [3]: 0.60 ± 0.02 mg/dL | CCG binding to the GBM (electron micrograph) [4]: intense CCG binding similar to control | CCG binding, particles/μm^2 GBM (morphometric analysis) [4]: 56.0±5.5 particles/μm^2 GBM | anionic GAG sites / preservation of GAGs in the GBM [4]: beneficial effect on the preservation of GAGs in the GBM

C[C@H](N[C@@H](CCc1ccccc1)C(=O)O)C(=O)N1CCC[C@H]1C(=O)O [enalaprilat]
cell-associated GAGs ([2]; PAN 40 μg/ml + E 200 μg/ml): 2.43+0.42 μg GAGs/10^6 cells | cell-associated GAGs ([2]; PAN 40 μg/ml + E 400 μg/ml): 2.8+0.65 μg GAGs/10^6 cells | cell-associated GAGs ([2]; PAN 40 μg/ml + E 800 μg/ml): 5.3±0.43 μg GAGs/10^6 cells | GAG content, dose dependence ([2]; PAN 40 μg/ml + enalaprilat 200-800 μg/ml): dose-dependent rise in GAG content | cell associated GAGs (^35S), % of control ([5]; PAN + enalaprilat 800 μg/ml): 96% | cell-associated GAGs (^35S), % of control ([6]; PAN + enalaprilat 800 μg/ml): 80% | GAG synthesis (incorporation of ^35S), summary statement ([6]; cell type not given, in the presence of PAN): significantly increased GAG synthesis to control levels | ^35S-GAG, % of control culture ([7]; chondrocytes, in the presence of enalaprilat 200 μg/ml, no puromycin): 108% | ^35S-GAG cpm ± SD ([7]; chondrocytes, in the presence of enalaprilat 200 μg/ml, no puromycin, control culture 6331 ± 1075): 6820 ± 1651 cpm | ^35S-GAG cpm ± SD [7, 11]: 9636 ± 1848 cpm | ^35S-GAG, % of control culture [7, 11]: 152%

CCOC(=O)[C@H](CCc1ccccc1)N[C@@H](C)C(=O)N1Cc2ccccc2C[C@H]1C(=O)O [quinapril]
inflammatory arthritis / disease activity [9]: suppress inflammatory arthritis
